The values below come from patent US8119364B2, “Methods for generating analogs of coenzyme A” (The Regents of the University of California, priority 2005, dated 2012).

SMILES strings stand for the structures. Entries after “also recorded” stand apart in the source; their conditions may differ. Where two headings read alike, the source gives them in different places.

Assay [1] concerns the target T1, E. coli PanK (CoAA) (Escherichia coli, UniProt P0A6I3).
T1 sequence (P0A6I3 1-316): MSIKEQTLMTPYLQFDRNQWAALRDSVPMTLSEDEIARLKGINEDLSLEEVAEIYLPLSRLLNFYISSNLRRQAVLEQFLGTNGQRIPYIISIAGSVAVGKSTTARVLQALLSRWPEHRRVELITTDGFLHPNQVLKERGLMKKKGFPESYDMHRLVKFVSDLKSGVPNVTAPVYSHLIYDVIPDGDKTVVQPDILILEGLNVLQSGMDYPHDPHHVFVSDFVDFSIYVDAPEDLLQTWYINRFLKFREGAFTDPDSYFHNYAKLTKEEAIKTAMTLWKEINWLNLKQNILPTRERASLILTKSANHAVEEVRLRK
The assay is described as follows: Kinetic assay of pantetheine analogs as substrates of PanK. Particulars: for Km / kcat: compound as substrate of E. coli PanK; for Km, fold lower: compared with pantothenate. Type of assay: biochemical. As to the method:
As mentioned earlier, phosphorylation of the primary hydroxyl group of pantothenate by the first protein in the CoA biosynthesis pathway, PanK, is believed to be the rate limiting step in vivo. Jackowski and Rock, J. Bacteria 148:926, 1981. Due to its role as the gatekeeper of CoA biosynthesis, each of the new analogs was assayed for kinetic activity with PanK (Table 2).
The assay was performed as previously described using the prototypical bacterial PanK, CoAA from E. coli. Kumar and Aldrich, Org. Lett. 5:613, 2003. The reaction of CoAA with the natural substrate pantothenate gave values that conformed to those previously reported in the literature. Worthington and Burkart, Org. Biomol. Chem. 4:44, 2005; Strauss and Begley, J. Biol. Chem. 277:48205, 2002. […] Conversely, compounds with PEG linkers between the pantoic acid moiety and the bioorthogonal terminus were poor substrates for CoAA.

Assay [2] deals with E. coli overexpressing the carrier protein VibB and the PPTase Sfp. In words: In vivo uptake: carrier protein labeling in E. coli. Type of assay: cell-based. Particulars: 1 mM compound, 4 hours of growth, SDS-PAGE fluorescence or western blot. As to the method: (§1) (a) Analogs were assayed for gel shift after reaction with CoA biosynthesis enzymes (CoAA/D/E), PPTase (Sfp) and carrier protein (E. coli ACP). Conversion of apo-ACP to reporter modified crypto-ACP causes a change in the mobility of the protein on native PAGE. (b) In vitro modification of the carrier protein VibB by reaction with fluorescent pantetheine analogs, CoA biosynthesis enzymes (CoAA/D/E) and Sfp. (c) In vivo modification of carrier protein by incubation of fluorescent pantetheine analogs with E. coli overexpressing VibB and the PPTase Sfp. (d) In vitro modification of VibB by reaction with bioorthogonal pantetheine analogs, CoA biosynthesis enzymes (CoAA/D/E) and Sfp. Labeled carrier protein is visualized by chemoselective ligation to the appropriate biotin reporter (9-11) followed by SDS-PAGE, blotting onto nitrocellulose, and incubation with streptavidin-linked alkaline phosphatase. (e) In vivo modification of carrier protein by incubation of bioorthogonal pantetheine analogs with E. coli overexpressing VibB and the PPTase Sfp. Visualization as in (d).
(§2) The library of pantetheine analogs was tested for integration into the E. coli CoA pathway using an in vivo assay. Clarke et al., J. Am. Chem. Soc. 127:11234, 2005. E. coli overexpressing the carrier protein VibB and the PPTase Sfp were incubated with 1 mM of each compound in 1 ml of culture. After 4 hours of growth cells were pelleted, washed, and lysed. Lysate from these cultures was run on SDS-PAGE gels and detection carried out as described for the in vitro studies. […] To verify the results of the gels and blots, samples of crude lysate were assayed by MALDI-MS (FIG. 11). For MALDI-MS analysis doubly transformed E. coli containing plasmids for the carrier protein Fren and the PPTase Sfp were used.

Assay [3] concerns CoA biosynthetic enzymes (CoAA/D/E), PPTase Sfp and apo-ACP. Particulars: MALDI-MS, in vitro.
Text: To confirm the results from this assay, the reaction mixtures were subjected to matrix-assisted laser desorption/ionization mass spectrometry (MALDI-MS). […] Compound 13 was reacted with the CoAA biosynthesis enzymes, ACP, and Sfp as described above and the reaction mix analyzed by MALDI without further purification.
Apo-ACP (a) is reacted with pantetheine analogs, CoA biosynthetic enzymes (CoAA/D/E) and the PPTase Sfp.
The subject of assay [4] is CoA biosynthesis enzymes (CoAA/D/E), PPTase (Sfp) and carrier protein (E. coli ACP). Particulars: native PAGE. Here is the method: Virga et al., Bioorg. Med. Chem. 14:1007, 2006. […] Clarke et al., J. Am. Chem. Soc. 127:11234, 2005.
as §1

Assay [5] deals with E. coli containing plasmids for the carrier protein Fren and the PPTase Sfp. The assay is described as follows: MALDI-MS of crude lysate after in vivo labeling. Type of assay: cell-based. As to the method: as §2
In another assay the target is CoAA (Escherichia coli, UniProt P0A6I3). To be noted: pantothenate as substrate. An excerpt: To isolate and investigate the effect of H-bond accepting heteroatoms in the linker region, pantetheine analogs 15 and 16 were synthesized. […] Virga et al., Bioorg. Med. Chem. 14:1007, 2006. […] To test if these compounds were acting as inhibitors of CoAA, a competitive kinetic assay was set up using pantotenate as the substrate. […] Ivey et al., J. Biol. Chem. 279:35622, 2004. Investigation of these compounds as potential inhibitor scaffolds is ongoing.

The target in assay [6] is T1, E. coli PanK (CoAA). Particulars: natural pantetheine, from reference 14, cited from earlier work.
Setting [7] is: compound 3 (β-Ala linkage) versus compound 1.

Regarding `C#CCNC(=O)CCNC(=O)[C@H](O)C(C)(C)CO` [Compound 2], at E. coli PanK (CoAA) [1], the “substrate suitability for CoAA/PanK (in words)” value was “kcat and Km values closely approaching those of the natural substrate”; the Michaelis constant (Km) was 32.9 ± 2.54 µM; the kcat was 0.5242 ± 0.0125 s⁻¹. Also, the “modification of VibB in vivo (detectability)” value (“modification of VibB in vivo” below) in assay [2] is reported as “detectable modification of VibB in vivo; also recorded: biodetectible in E. coli”.

Turning to `CN(C)c1ccc2c(CC(=O)NCCOCCOCCNC(=O)[C@H](O)C(C)(C)CO)cc(=O)oc2c1` [Compound 17], on E. coli PanK (CoAA) [1], the “Km compared with natural substrate pantothenate (fold higher)” value (“Km … (fold higher)” for short) is given as “two-fold higher”, the “substrate suitability for CoAA/PanK (in words)” value is recorded as “viable substrates”, the Km came out at 51.2 ± 6.42 µM and the turnover number (kcat) was found to be 0.1677 ± 0.00717 s⁻¹. The “conversion to CoA analog and transfer onto carrier protein ACP” value in assay [3] was “converted to CoA analogs and modify ACP”.

For the compound `CN(C)c1ccc2c(CC(=O)NCCNC(=O)[C@H](O)C(C)(C)CO)cc(=O)oc2c1` [Compound 12], on E. coli PanK (CoAA) [1], the “substrate suitability for CoAA/PanK (in words)” value is “lower turnover and catalytic efficiency than analogs containing the natural β-Ala/pantoic acid linkage; also recorded: good binding but slow turnover”; the Km is 37.2 ± 5.82 µM; the turnover number (kcat) came to 0.1927 ± 0.0095 s⁻¹. Further, the “modification of VibB in vivo” value in assay [2] is given as “detectable modification of VibB in vivo; also recorded: biodetectible in E. coli”.

For the compound `CC(C)(CO)[C@@H](O)C(=O)NCCOCCOCCNC(=O)CCN=[N+]=[N-]` [Compound 7], on E. coli PanK (CoAA) [1], the “Km … (fold higher)” value was “two-fold higher”, the “substrate suitability for CoAA/PanK (in words)” value is on record as “viable substrates”, the Michaelis constant (Km) amounted to 53.8 ± 11.2 µM and the kcat was determined as 0.103 ± 0.00733 s⁻¹.

In the case of `CC(C)(CO)[C@@H](O)C(=O)NCCC(=O)NCCN=[N+]=[N-]` [Compound 3], on E. coli PanK (CoAA) [1], the “substrate suitability for CoAA/PanK (in words)” value is “kcat and Km values closely approaching those of the natural substrate”; the Km worked out at 43.5 ± 1.99 µM; the kcat stood at 0.46695 ± 0.007 s⁻¹. Besides, on E. coli PanK (CoAA) [1] (setting [7]), the “increase in Km” value turned out to be 10 fold and the “increase in catalytic efficiency” value is given as around 20 fold. Moreover, the “modification of VibB in vivo” value in assay [2] is “detectable modification of VibB in vivo; also recorded: biodetectible in E. coli”.

For the compound `CC(=O)CCC(=O)NCCNC(=O)CCNC(=O)[C@H](O)C(C)(C)CO` [Compound 4], at E. coli PanK (CoAA) [1], the “Km … (fold higher)” value is “two fold higher”, the “turnover compared with the natural substrate (in words)” value was “near equal”, the Michaelis constant (Km) amounted to 62.6 ± 3.89 µM and the kcat was found to be 0.344 ± 0.0075 s⁻¹. For the same compound, the “modification of VibB in vivo” value in assay [2] is listed as “detectable, but showed much weaker labeling; also recorded: biodetectible in E. coli”.

Turning to `CN(C)c1ccc2c(CC(=O)NCCOCCOCCOCCOCCOCCOCCOCCOCCOCCOCCNC(=O)[C@H](O)C(C)(C)CO)cc(=O)oc2c1` [Compound 18], the “substrate suitability for CoAA/PanK (in words)” value at E. coli PanK (CoAA) [1] is “such poor substrates that kinetic data could not be generated”. In addition, the “change in mobility / conversion of apo-ACP to crypto-ACP” value in assay [4] is “multiple bands on the gel that suggest apo-protein remains”.

As to `CC(C)(CO)[C@@H](O)C(=O)NCCOCCOCCOCCOCCOCCOCCOCCOCCOCCOCCN=[N+]=[N-]` [Compound 8], the “substrate suitability for CoAA/PanK (in words)” value at E. coli PanK (CoAA) [1] was “such poor substrates that kinetic data could not be generated”. Further, the “change in mobility / conversion of apo-ACP to crypto-ACP” value in assay [4] is on record as “multiple bands on the gel that suggest apo-protein remains”. In assay [3], the “conversion to CoA analog and transfer onto carrier protein ACP” value is on record as “significantly incomplete”.

`CN(C)c1cccc2c(S(=O)(=O)NCCNC(=O)CCNC(=O)[C@H](O)C(C)(C)CO)cccc12` [Compound 14]: on E. coli PanK (CoAA) [1], the “Km … (fold higher)” value is given as “the same as”, the “substrate suitability for CoAA/PanK (in words)” value is on record as “processed particularly efficiently by PanK”, the “turnover compared with the natural substrate (in words)” value is on record as “near equal” and the Km was determined as 27.3 ± 3.28 µM. The kcat on E. coli PanK (CoAA) [1] amounted to 0.2877 ± 0.0103 s⁻¹.

In the case of `CN(C)c1ccc2c(CC(=O)NCCCCCCNC(=O)CCNC(=O)[C@H](O)C(C)(C)CO)cc(=O)oc2c1` [Compound 13], at E. coli PanK (CoAA) [1], the “Km … (fold higher)” value is on record as “the same as”, the “substrate suitability for CoAA/PanK (in words)” value is “processed particularly efficiently by PanK”, the “turnover compared with the natural substrate (in words)” value is “near equal” and the Km was determined as 28.4 ± 6.92 µM. Also, the turnover number (kcat) at E. coli PanK (CoAA) [1] came out at 0.3193 ± 0.0235 s⁻¹. Also, in assay [5], the “in vivo uptake and attachment onto Fren” value was “taken up by the cell, processed into a CoA analog and attached onto Fren”. Moreover, in assay [2], the “modification of VibB in vivo” value is reported as “detectable modification of VibB in vivo; also recorded: biodetectible in E. coli”. Besides, the “conversion to CoA analog and transfer onto carrier protein ACP” value in assay [3] was “converted to CoA analogs and modify ACP”.

For `CN(C)c1ccc2c(CC(=O)NCCCOCCNC(=O)[C@H](O)C(C)(C)CO)cc(=O)oc2c1` [Compound 15], at E. coli PanK (CoAA) [1], the “substrate suitability for CoAA/PanK (in words)” value is “extremely poor substrates; also recorded: losing almost all substrate activity”; the “Km, fold lower” value turned out to be 100 fold; the Km amounted to 0.76 ± 0.32 µM; the kcat came to 0.0227 ± 0.00083 s⁻¹. The “mode of inhibition of CoAA” value on CoAA is listed as “non-competitive inhibitor”.

For `CC(=O)CCC(=O)NCCOCCOCCNC(=O)[C@H](O)C(C)(C)CO` [Compound 6], on E. coli PanK (CoAA) [1], the “substrate suitability for CoAA/PanK (in words)” value is “markedly decreased kinetic activity”, the Km was 0.196 ± 0.09 µM and the turnover number (kcat) stood at 0.0267 ± 0.001 s⁻¹.

With `CC(C)(CO)[C@@H](O)C(=O)NCCN=[N+]=[N-]` [Compound 1], on E. coli PanK (CoAA) [1], the “Km … (fold higher)” value amounted to 20 fold, the “turnover compared with the natural substrate (in words)” value is on record as “turnover within the range of the natural substrate”, the Michaelis constant (Km) worked out at 692 ± 89.1 µM and the turnover number (kcat) was 0.3722 ± 0.0257 s⁻¹.

As to `CC(C)(CO)[C@@H](O)C(=O)NCCC(=O)NCCS` [Pantetheine], at E. coli PanK (CoAA) [6], the Km is 91 ± 10 µM and the kcat was 0.32 ± 0.0017 s⁻¹. The turnover number (kcat) at E. coli PanK (CoAA) [6] (listed as pantetheine) was 0.525 s⁻¹.

Turning to `CN(C)c1ccc2c(CC(=O)NCCOCCCNC(=O)[C@H](O)C(C)(C)CO)cc(=O)oc2c1` [Compound 16], on E. coli PanK (CoAA) [1], the “substrate suitability for CoAA/PanK (in words)” value is “extremely poor substrates; also recorded: losing almost all substrate activity”; the “Km, fold lower” value stood at 100 fold; the Km came out at 0.14 ± 0.18 µM; the kcat is 0.0167 ± 0.0005 s⁻¹.

For `CC(C)(CO)[C@@H](O)C(=O)NCCC(=O)NCCNC(=O)CCN=[N+]=[N-]` [Compound 5], at E. coli PanK (CoAA) [1], the “Km … (fold higher)” value is “two fold higher”, the “substrate suitability for CoAA/PanK (in words)” value is on record as “processed particularly efficiently by PanK”, the “turnover compared with the natural substrate (in words)” value is recorded as “exceeding” and the Km amounted to 71.9 ± 6.98 µM. Besides, the kcat at E. coli PanK (CoAA) [1] was found to be 0.6818 ± 0.0187 s⁻¹. For the same compound, the “modification of VibB in vivo” value in assay [2] is “detectable modification of VibB in vivo; also recorded: biodetectible in E. coli”.
